The nature of series [1]: Intrinsic clearance in human liver microsomes at 1 uM. The series is classed as ADME. The note with it: read-out: CLH. (Liver microsomes are a subcellular fraction often used to study metabolism.)
The target in series [2] is T1, Orexin receptor type 2 (Homo sapiens, UniProt O43614).
T1 sequence (O43614 whole entry): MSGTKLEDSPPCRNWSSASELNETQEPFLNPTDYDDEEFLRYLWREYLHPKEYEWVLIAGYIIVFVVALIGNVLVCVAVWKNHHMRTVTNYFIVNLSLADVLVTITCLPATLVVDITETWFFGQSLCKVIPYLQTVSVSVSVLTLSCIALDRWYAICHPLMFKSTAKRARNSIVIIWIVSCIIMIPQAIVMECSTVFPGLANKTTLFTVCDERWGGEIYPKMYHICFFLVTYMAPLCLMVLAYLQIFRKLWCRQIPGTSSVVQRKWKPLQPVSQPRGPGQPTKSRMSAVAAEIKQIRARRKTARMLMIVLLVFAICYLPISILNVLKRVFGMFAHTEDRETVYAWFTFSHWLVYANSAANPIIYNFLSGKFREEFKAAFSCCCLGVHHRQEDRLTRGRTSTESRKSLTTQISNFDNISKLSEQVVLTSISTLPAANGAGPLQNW
As to the kind of experiment: Antagonist activity at human orexin 2 receptor expressed in CHO cells assessed as inhibition of orexin-A-induced calcium mobilization by FLIPR assay. The format is functional, cell-based. (In general: Calcium assays in cells follow changes in intracellular calcium, usually with a dye or a luminescent sensor.)

Series [3] addresses T2, Orexin/Hypocretin receptor type 1 (Homo sapiens, UniProt O43613).
T2 sequence (O43613 whole entry): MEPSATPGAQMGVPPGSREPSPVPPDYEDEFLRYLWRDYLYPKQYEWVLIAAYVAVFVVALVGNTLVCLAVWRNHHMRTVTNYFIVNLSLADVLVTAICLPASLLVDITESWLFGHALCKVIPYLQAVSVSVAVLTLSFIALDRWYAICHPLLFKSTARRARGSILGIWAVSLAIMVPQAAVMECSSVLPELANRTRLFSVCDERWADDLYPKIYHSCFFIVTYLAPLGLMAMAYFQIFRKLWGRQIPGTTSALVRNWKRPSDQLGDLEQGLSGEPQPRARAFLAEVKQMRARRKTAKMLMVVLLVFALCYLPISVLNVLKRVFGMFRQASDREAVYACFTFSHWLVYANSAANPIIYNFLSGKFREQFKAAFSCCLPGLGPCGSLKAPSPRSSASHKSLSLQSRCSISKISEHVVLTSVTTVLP
As to the kind of experiment: Antagonist activity at human orexin 1 receptor expressed in CHO cells assessed as inhibition of orexin-A-induced calcium mobilization by FLIPR assay. The series is classed as functional, cell-based.

Series [4] is described as follows: Plasma concentration in Wistar rat at 100 mg/kg, po after 3 hrs. Details: dose 100 mg/kg, route oral. The format is ADME, organism-based.
Series [5] in a line: Ratio of drug level in brain to plasma in Wistar rat at 100 mg/kg, po after 3 hrs. The series is classed as ADME, organism-based. Details: dose 100 mg/kg, route oral. The note with it: read-out: BPR.
Series [6] in a line: Drug level in Wistar rat brain at 100 mg/kg, po after 3 hrs. The note with it: read-out: Drug uptake. Details: dose 100 mg/kg, route oral. The format is ADME, organism-based.
For series [7], the target named is Cytochrome P450 2D6 (Homo sapiens, UniProt P10635). As to the kind of experiment: Inhibition of CYP2D6 (unknown origin). The format is ADME.
The target in series [8] is Cytochrome P450 3A4 (Homo sapiens, UniProt P08684). As to the kind of experiment: Inhibition of CYP3A4 (unknown origin). The series is classed as ADME.
Series [9] addresses Cytochrome P450 2C9 (Homo sapiens, UniProt P11712). As to the kind of experiment: Inhibition of CYP2C9 (unknown origin). The format is ADME.
Series [10] can be described thus: Intrinsic clearance in rat liver microsomes at 1 uM. The series is classed as ADME. The note with it: read-out: CLH.
For series [11], the system named is Cerebrospinal fluid. As to the kind of experiment: Drug level in Wistar rat cerebrospinal fluid at 100 mg/kg, po. The format is ADME, organism-based. Details: dose 100 mg/kg, route oral. The note with it: in vivo.
The test system of series [12] is MDR1. As to the kind of experiment: Apparent passive permeability across basolateral to apical side in MDCK cells expressing human MDR1. The format is ADME, cell-based, Canis lupus familiaris. The note with it: dog.
For series [13], the system named is MDR1. As to the kind of experiment: Apparent passive permeability across apical to basolateral side in MDCK cells expressing human MDR1. The series is classed as ADME, cell-based, Canis lupus familiaris. The note with it: dog.
Series [14] in a line: Half life in human liver microsomes. The series is classed as ADME.

Structures are written as SMILES.

Cytochrome P450 3A4, sequence (P08684 whole entry): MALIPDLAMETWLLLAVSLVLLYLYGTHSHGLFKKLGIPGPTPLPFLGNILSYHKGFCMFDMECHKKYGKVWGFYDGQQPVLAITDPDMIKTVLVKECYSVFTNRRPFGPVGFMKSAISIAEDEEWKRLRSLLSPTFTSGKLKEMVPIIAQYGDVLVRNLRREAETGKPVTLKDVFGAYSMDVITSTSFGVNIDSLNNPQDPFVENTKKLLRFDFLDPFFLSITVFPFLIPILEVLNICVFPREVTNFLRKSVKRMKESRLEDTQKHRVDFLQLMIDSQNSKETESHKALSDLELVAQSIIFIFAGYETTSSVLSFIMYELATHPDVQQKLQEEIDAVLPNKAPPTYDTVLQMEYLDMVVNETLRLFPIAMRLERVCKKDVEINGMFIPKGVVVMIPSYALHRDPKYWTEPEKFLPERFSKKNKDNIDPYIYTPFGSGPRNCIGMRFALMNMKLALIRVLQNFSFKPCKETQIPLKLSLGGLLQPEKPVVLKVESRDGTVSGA
Cytochrome P450 2C9, sequence (P11712 whole entry): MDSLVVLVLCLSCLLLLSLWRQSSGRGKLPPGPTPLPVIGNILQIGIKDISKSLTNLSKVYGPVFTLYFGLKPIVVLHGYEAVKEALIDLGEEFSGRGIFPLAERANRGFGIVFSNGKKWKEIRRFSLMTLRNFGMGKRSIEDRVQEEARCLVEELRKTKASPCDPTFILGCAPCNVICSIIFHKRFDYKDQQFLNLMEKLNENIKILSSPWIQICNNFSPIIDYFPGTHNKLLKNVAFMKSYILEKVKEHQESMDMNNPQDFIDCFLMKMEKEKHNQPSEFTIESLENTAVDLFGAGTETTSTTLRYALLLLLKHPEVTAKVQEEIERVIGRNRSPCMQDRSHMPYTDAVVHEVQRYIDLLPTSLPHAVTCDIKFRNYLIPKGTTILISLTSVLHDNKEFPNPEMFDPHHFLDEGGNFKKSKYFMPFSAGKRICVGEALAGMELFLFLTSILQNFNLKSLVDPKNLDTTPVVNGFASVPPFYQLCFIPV
Cytochrome P450 2D6, sequence (P10635 whole entry): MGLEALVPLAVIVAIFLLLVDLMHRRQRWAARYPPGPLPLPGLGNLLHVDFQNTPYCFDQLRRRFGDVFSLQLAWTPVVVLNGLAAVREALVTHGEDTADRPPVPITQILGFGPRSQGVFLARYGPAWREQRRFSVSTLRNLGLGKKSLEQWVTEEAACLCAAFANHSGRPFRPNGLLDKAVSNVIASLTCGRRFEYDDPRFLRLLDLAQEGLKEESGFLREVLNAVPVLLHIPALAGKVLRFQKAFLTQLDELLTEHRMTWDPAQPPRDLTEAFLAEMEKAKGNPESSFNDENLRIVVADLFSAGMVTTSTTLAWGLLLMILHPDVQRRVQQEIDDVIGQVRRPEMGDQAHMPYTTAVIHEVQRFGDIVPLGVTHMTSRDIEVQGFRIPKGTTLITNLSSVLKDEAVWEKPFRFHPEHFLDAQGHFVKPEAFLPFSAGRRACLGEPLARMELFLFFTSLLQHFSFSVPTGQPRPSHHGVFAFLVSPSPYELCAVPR

One may read the IC50 as the concentration that gives 50% inhibition. Turning to `COc1cccc(OC)c1C1CCCC(=O)N1Cc1cccc(-c2ccccc2)c1` (racemic), the microsomal CLint at 1 µM in series [1] is more than 1250 µL/min/mg. Moreover, the concentration for half-maximal inhibition (IC50) is 28 nM in series [2] and 65 nM in series [3].

For the compound `COc1cccc(OC)c1C1CCCC(=O)N1Cc1csc(-c2ccccc2)n1` (racemic), the microsomal CLint at 1 µM in series [1] was more than 1250 µL/min/mg. In addition, the results for the 50% inhibitory concentration (IC50) in series [2] and in [3] were 6 nM and 45 nM, respectively.

As to `COc1cccc(F)c1C1CCCC(=O)N1Cc1ccc(OC(F)(F)F)cc1` (racemic), the IC50 in [2] is 161 nM.

Take `COc1cccc(OC)c1C1CCCC(=O)N1Cc1ccc(OC(F)(F)F)cc1` (racemic): the concentration at 3 h in series [4] worked out at 94 ng/mL; in series [6] it was 153 ng/g. Besides, in series [5], the Kp at 3 h is 1.6. Moreover, the microsomal CLint at 1 µM in [1] was more than 1250 µL/min/mg. The IC50 stood at 25 nM in series [2] and 284 nM in series [3].

For `COc1cccc(OC)c1C1CCCC(=O)N1Cc1ccc2ccccc2n1` (racemic), the IC50 in series [3] amounted to 49 nM.

As to `COc1cccc(OC)c1C1CCC(=O)N1Cc1ccc(OC(F)(F)F)cc1` (racemic), the microsomal CLint at 1 µM in [1] was 670 µL/min/mg.

Consider `COc1cccc(OC)c1C1COCC(=O)N1Cc1ccc(OC(F)(F)F)cc1` (racemic), for which, in series [1], the microsomal CLint at 1 µM is more than 1250 µL/min/mg.

Turning to `COc1cccc(OC)c1C1CCC(C)C(=O)N1Cc1ccc(OC(F)(F)F)cc1` (mixture of isomers), in series [1], the microsomal CLint at 1 µM came out at 649 µL/min/mg.

With `COc1cc(OC)c(C2CCCCN2Cc2ccc(OC(F)(F)F)cc2)c(OC)c1` (racemic), the figures for the IC50 in series [2] and in series [3] were more than 10000 nM and 1590 nM, respectively.

Regarding `COc1cccc(OC)c1C1CC(C)CC(=O)N1Cc1ccc(OC(F)(F)F)cc1` (mixture of isomers), the microsomal CLint at 1 µM in series [1] stood at 645 µL/min/mg.

Turning to `COc1cccc(OC)c1C1CCCC(=O)N1Cc1cnc2ccccc2c1` (racemic), the IC50 in series [2] stood at 217 nM; in [3] it was 675 nM.

As a reminder, the Papp B→A is how fast a substance crosses the layer from the basolateral side. The term Papp A→B denotes how fast a substance crosses the layer from the apical side. For the compound `COc1cccc(OC)c1C1CCCC(=O)N1Cc1ccc2ccccc2n1` (single isomer, unassigned), the half-inhibitory concentration (IC50) in [7], in series [8] and in series [9] was more than 30000 nM in each case. Moreover, the microsomal CLint at 1 µM in series [10] and in [1] was more than 1250 µL/min/mg in each case. In addition, in series [11], the Drug uptake was determined as 23 ng/mL. Besides, the apparent permeability from basolateral to apical (Papp B→A) in [12] is 63.2 ×10⁻⁶ cm/s. Further, the Papp A→B in series [13] amounted to 24.2 ×10⁻⁶ cm/s. For the same compound, the concentration at 3 h in [4] is 140 ng/mL; in [6], 108 ng/g. The Kp at 3 h in series [5] was determined as 0.8.

As to `COc1cccc(OC)c1C1CC(C)C(=O)N1Cc1ccc2oc3ccccc3c2c1` (mixture of isomers), in series [1], the microsomal CLint at 1 µM was 260 µL/min/mg. Besides, the half-inhibitory concentration (IC50) in [2] came out at 9 nM; in series [3], 4 nM.

Turning to `COc1cccc(OC)c1C1CCCCC(=O)N1Cc1ccc(OC(F)(F)F)cc1` (racemic), the microsomal CLint at 1 µM in series [1] was more than 1250 µL/min/mg. Besides, the IC50 in [2] came out at 74 nM; in series [3] it was 264 nM.

Regarding `COc1cccc(OC)c1C1CCCC(=O)N1C(C)c1ccc(OC(F)(F)F)cc1` (mixture of isomers), in series [1], the microsomal CLint at 1 µM is more than 1250 µL/min/mg. In addition, the IC50 is 21 nM in series [2] and 142 nM in series [3].

On to `COc1cccc(OC)c1C1CCCC(=O)N1Cc1cccc(-c2ncccn2)c1` (configuration not stated), for which, in series [1], the microsomal CLint at 1 µM is more than 1250 µL/min/mg.

Consider `COc1cccc(OC)c1C1C2CC2C(=O)N1Cc1ccc(OC(F)(F)F)cc1` (mixture of isomers), for which the IC50 came out at 1070 nM in [2] and 1150 nM in [3].

In the case of `COc1cccc(OC)c1C1CCCC(=O)N1Cc1cccc(-n2nccn2)c1` (racemic), the microsomal CLint at 1 µM in series [1] is more than 1250 µL/min/mg.

As to `COc1cccc(OC)c1C1CCCC(=O)N1Cc1ccc(Oc2ccccc2)cc1` (racemic), the IC50 stood at 29 nM in series [2] and 531 nM in series [3].

Regarding `COc1ccnc(OC)c1C1CCCC(=O)N1Cc1ccc2oc3ccccc3c2c1` (racemic), the microsomal CLint at 1 µM in series [1] was found to be 1130 µL/min/mg.

In the case of `COc1ccc2nc(C)oc2c1C1CCCC(=O)N1Cc1cccc(-c2ccccc2)c1` (racemic), the microsomal CLint at 1 µM in series [1] was more than 1250 µL/min/mg. For the same compound, the IC50 is 93 nM in series [2] and 54 nM in [3].

For the compound `COc1cccc(OC)c1C1CCCC(=O)N1Cc1cccc(-c2ccccn2)c1` (racemic), the microsomal CLint at 1 µM in [1] is more than 1250 µL/min/mg.

On to `COc1cccc(OC)c1C1CCCC(=O)N1Cc1ccnc(-c2ccccc2)c1` (racemic), for which the microsomal CLint at 1 µM in series [1] is more than 1250 µL/min/mg.

As for `COc1cccc(OC)c1C1CCCC(=O)N1Cc1cccc(-c2csc(C)n2)c1` (racemic), the microsomal CLint at 1 µM in series [1] was more than 1250 µL/min/mg.

Regarding `COc1cccc(OC)c1C1CCCC(=O)N1c1ccccc1` (racemic), the IC50 in series [2] and in series [3] was more than 10000 nM each time.

`COc1cccc(OC)c1C1CCCC(=O)N1Cc1ccc2sc(C)nc2c1` (racemic): the microsomal CLint at 1 µM in [1] was 860 µL/min/mg. Besides, the figures for the half-maximal inhibitory concentration (IC50) in series [2] and in series [3] were 12 nM and 32 nM, respectively.

Regarding `COc1cccc(OC)c1C1CCCC(=O)N1Cc1ccnc(-n2cccn2)c1` (racemic), the microsomal CLint at 1 µM in [1] was more than 1250 µL/min/mg.

Consider `COc1cccc(OC)c1C1COC(=O)N1Cc1ccc(OC(F)(F)F)cc1` (racemic), for which the IC50 came out at 771 nM in series [2] and 2650 nM in series [3].

Take `COc1cccc(OC)c1C1CC(C)C(=O)N1Cc1ccc2sc(C)nc2c1` (mixture of isomers): in series [1], the microsomal CLint at 1 µM is 88 µL/min/mg.

What is called half-life is how long it takes for the measured level to halve. A low value points to fast loss. As to `COc1cccc(OC)c1C1CCCC(=O)N1Cc1ccc2ccccc2c1` (racemic), the half-life in series [14] was less than 1 min. Also, in series [1], the microsomal CLint at 1 µM is more than 1250 µL/min/mg.

`COc1ccc2nc(C)oc2c1C1CCCC(=O)N1Cc1cccc(-c2csc(C)n2)c1` (racemic): in [1], the microsomal CLint at 1 µM was more than 1250 µL/min/mg. Also, the IC50 was determined as 65 nM in series [2] and 17 nM in [3].

Consider `COc1ccnc(OC)c1C1CCCC(=O)N1Cc1csc(-c2ccccc2)n1` (racemic), for which the microsomal CLint at 1 µM in [1] is 912 µL/min/mg.

For the compound `COc1cccc(OC)c1C1CCCC(=O)N1Cc1ccnc(-c2nccs2)c1` (racemic), in series [1], the microsomal CLint at 1 µM is more than 1250 µL/min/mg.

As to `COc1cccc(OC)c1C1CCCC(=O)N1Cc1ccccc1` (racemic), the IC50 in series [2] was found to be 416 nM; in [3], 2420 nM.

Consider `COc1cccc(OC)c1C1CCCC(=O)N1Cc1ccc2oc3ccccc3c2c1` (racemic), for which, in series [1], the microsomal CLint at 1 µM turned out to be 1200 µL/min/mg.

For the compound `COc1cccc(OC)c1C1CCCC(=O)N1CCc1ccccc1` (racemic), the values for the IC50 in series [2] and in series [3] were 1330 nM and 9700 nM, respectively.

Consider `COc1cccc(OC)c1[C@H]1C[C@H](C)C(=O)N1Cc1ccc(OC(F)(F)F)cc1` (racemic), for which the microsomal CLint at 1 µM in [1] worked out at 257 µL/min/mg.

As to `COc1cccc(OC)c1C1CCCC(=O)N1Cc1cccc(-c2ccccc2)n1` (racemic), in [1], the microsomal CLint at 1 µM is more than 1250 µL/min/mg.

As to `COc1cccc(OC)c1C1SCC(=O)N1Cc1ccc(OC(F)(F)F)cc1` (racemic), the IC50 worked out at 16 nM in series [2] and 155 nM in [3].

Consider `COc1cccc(OC)c1C1c2ccccc2C(=O)N1Cc1ccc(OC(F)(F)F)cc1` (racemic), for which the IC50 in [2] and in series [3] was more than 10000 nM each time.
